From patent US12576169B2, “Silicon-fluoride acceptor substituted radiopharmaceuticals and precursors thereof” (Technische Universität München, priority 2019, dated 2026)
Like-named read-outs stand apart in the source and are kept apart here. *1 amine or outer side, *2 acyl side, *3 side chain or, on linkers, in order; H or OH if unused. Where a SMILES comes first, the peptide text is derived from it. Side-chain parts run from the residue outwards. [ ]: non-standard residue; d: D form. The star is where a group is joined. X1 = O=C(O)CC[C@H](NC(=O)N[C@@H](CCC(=O)N[C@H](CCCN*)C(=O)O)C(=O)O)C(=O)O; Benzoyl(4-SiFtBu2) = CC(C)(C)[Si](F)(c1ccc(C(=O)*)cc1)C(C)(C)C; Suc = O=C(CCC(=O)[*:2])[*:1]; dDap = NC[C@@H](N)C(=O)O

Experiments:
[1] = Wangler et al. 2010; cited from earlier work
[2] = radiolabeled established inhibitors; literature; cited from earlier work
[3] = biological target: HSA (Homo sapiens, UniProt P02768); conditions: cited from earlier work; for Lit. HSA binding: literature values (Yamazaki, Kanaoka 2004); for Log K HSA: logarithmic K of HSA binding literature values
HSA, sequence (P02768 25-609): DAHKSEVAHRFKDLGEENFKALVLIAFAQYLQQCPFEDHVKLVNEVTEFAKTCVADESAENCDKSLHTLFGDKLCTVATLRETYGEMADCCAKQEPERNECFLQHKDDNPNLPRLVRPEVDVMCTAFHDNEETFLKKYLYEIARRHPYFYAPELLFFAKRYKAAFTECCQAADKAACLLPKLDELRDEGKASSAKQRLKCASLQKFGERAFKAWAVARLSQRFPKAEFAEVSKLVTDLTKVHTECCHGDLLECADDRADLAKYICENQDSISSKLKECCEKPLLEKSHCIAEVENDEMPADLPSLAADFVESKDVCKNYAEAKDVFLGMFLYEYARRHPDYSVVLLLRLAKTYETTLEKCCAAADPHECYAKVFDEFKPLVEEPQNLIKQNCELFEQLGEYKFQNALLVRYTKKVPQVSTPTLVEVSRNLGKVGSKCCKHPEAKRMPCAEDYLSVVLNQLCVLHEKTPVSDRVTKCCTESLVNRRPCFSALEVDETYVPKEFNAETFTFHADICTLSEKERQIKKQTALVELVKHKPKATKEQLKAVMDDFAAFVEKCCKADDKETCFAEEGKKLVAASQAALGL

[4] = biological target: T1, PSMA (Homo sapiens, UniProt Q04609); conditions: PSMA binding affinity; literature; cited from earlier work
T1 sequence (Q04609 whole entry): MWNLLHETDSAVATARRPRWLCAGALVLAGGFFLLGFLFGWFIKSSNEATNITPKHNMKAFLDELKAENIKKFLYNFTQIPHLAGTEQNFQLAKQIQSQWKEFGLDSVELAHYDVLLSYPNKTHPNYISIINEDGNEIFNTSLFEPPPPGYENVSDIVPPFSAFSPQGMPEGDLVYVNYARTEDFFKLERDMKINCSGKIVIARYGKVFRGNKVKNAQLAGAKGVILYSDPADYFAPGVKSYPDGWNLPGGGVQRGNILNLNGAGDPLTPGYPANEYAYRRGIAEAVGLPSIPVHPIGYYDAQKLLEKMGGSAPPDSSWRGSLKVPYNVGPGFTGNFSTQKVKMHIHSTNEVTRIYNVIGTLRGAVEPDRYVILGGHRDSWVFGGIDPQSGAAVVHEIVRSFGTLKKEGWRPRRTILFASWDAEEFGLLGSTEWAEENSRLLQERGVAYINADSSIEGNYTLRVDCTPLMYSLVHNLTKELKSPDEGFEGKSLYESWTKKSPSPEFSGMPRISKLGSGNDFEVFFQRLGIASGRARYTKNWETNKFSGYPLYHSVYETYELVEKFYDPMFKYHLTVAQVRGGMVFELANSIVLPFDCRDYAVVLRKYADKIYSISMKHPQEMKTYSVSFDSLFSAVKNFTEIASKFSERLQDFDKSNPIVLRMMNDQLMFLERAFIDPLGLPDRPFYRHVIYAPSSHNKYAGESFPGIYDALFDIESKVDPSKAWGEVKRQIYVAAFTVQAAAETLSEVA

[5] = biological target: T1, PSMA; conditions: after 1 h; literature; cited from earlier work
[6] = biological target: T1, PSMA; experiment: IC50 determination: PSMA binding affinity, competition with [125I]XII on LNCaP cells; conditions: LNCaP cells (150.000 cells/well); reference [125I]XII c = 0.2 nM; 1 h, 4° C., HBSS add. 1% BSA; mean ± SD (n = 3)
Description: LNCaP cells were grown in Dulbecco's Modified Eagle Medium/Nutrient Mixture F-12 (DMEM/F-12, add. 10% fetal calf serum (FCS), v/v) and maintained at 37° C. in a humidified 5% CO2 atmosphere. […] After removal of the culture medium, LNCaP cells were treated with HBSS (add. 1% BSA, v/v, 4° C., 500 μL) and subsequently left 15 min on ice for equilibration in HBSS (add. 1% BSA, v/v, 4° C., 200 μL). […] For the control series, HBSS (add. 1% BSA, v/v, 25 μL) was used instead of the SiFA-PSMA ligand solution. Each concentration and the control were prepared in triplicate. After 1 h incubation on ice, the assay medium was removed and cells were washed with HBSS (200 μL, 4° C.). […] NaOH (200 μL) for at least 10 min and the resulting cell lysate was removed. The wells were treated again with 1 M aq. […] The experiment was repeated for at least three times and the IC50 value calculated using the GraphPad PRISM 8.0.2 software (Graphpad Software Inc., La Jolla, United States).

[7] = tested on: LNCaP cells; experiment: Internalization of 18F-labeled ligands into LNCaP cells; assay type: cell-based, human; conditions: internalized activity at 1 h in % of reference [125I]XII; c = 0.5 nM; LNCaP cells (125.000 cells/well); 37° C., DMEM/F-12 add. 5% BSA; corrected for non-specific binding (10 μm PMPA); mean ± SD (n = 3)
Description: LNCaP cells were grown in DMEM/F-12 (add. 10% FCS, v/v) and maintained at 37° C. in a humidified 5% CO2 atmosphere. […] Subsequent to the removal of the culture medium, cells were washed with DMEM-F12 (add. 5% BSA, v/v, 500 μL) and left to equilibrate in DMEM-F12 (add. 5% BSA, v/v, 200 μL) at 37° C. for 15 min. Each well was treated with either DMEM-F12 (add. 5% BSA, v/v, 25 μL) or a 2-(phosphonomethyl)-pentandioic acid (PMPA) solution (100 μM in PBS, 25 μL) for blockade. Afterwards, the ^18F-labeled SiFA-PSMA ligand (5 nM in PBS, 25 μL) was added and the cells were incubated for 1 h at 37° C. The experiment was terminated by placing the 24-well plate on ice for 3 min and removal of the assay medium. Each well was rinsed with HBSS (4° C., 250 μL) and the fractions were combined with the previous assay medium, representing the amount of unbound radioligand. For removal of surface bound activity, LNCaP cells were incubated with PMPA solution (10 μM in PBS, 4° C., 250 μL) for 5 min and rinsed again with PBS (250 μL, 4° C.). The internalized activity was determined by incubation of LNCaP cells with 1 M aq. NaOH (250 μL) for at least 10 min and combination with the fraction of a subsequent wash step with 1 M aq. NaOH (200 μL). Each experiment (control and blockade) was performed in triplicate. […] All internalization studies were accompanied by reference studies using the reference compound XII (2 nM in HBSS add. 1% BSA, v/v), which were performed analogously. Data were corrected for non-specific internalization and normalized to the specific-internalization observed for the radioiodinated reference compound.

[8] = biological target: T2, human serum albumin (HSA) (Homo sapiens, UniProt P02768); experiment: Binding to HSA on a Chiralpak HSA column; assay type: in vitro ADME; conditions: calibration with nine reference substances
T2 construct: purchased H13H-2433
T2 sequence (P02768 25-609): as the sequence (P02768 25-609) above
Description: For the determination of human serum albumin (HSA) binding, a Chiralpak HSA column (50×3 mm, 5 μm, H13H-2433) was used at a constant flow rate of 0.5 mL/min. The mobile phase composed of a 50 mM NH4OAc solution in water with pH=7 (solvent C) and isopropanol (solvent D) was freshly prepared for each experiment and used only once. The reference substances (Table 1) as well as the analyzed SiFA-PSMA ligands were dissolved in a mixture of solvent C/solvent D (1:1, v/v, 0.5 mg/mL) and eluted from the HSA column (0-3 min: 100% C, 3-20 min: 20% D in C, λ=254 nm). The column was kept at rt and each run was stopped after detection of the signal to reduce the acquisition time. The nine reference substances display an HSA binding range of 13% to 99% and were injected consecutively in order to establish a sigmoidal calibration curve with the software OriginPro 2018b (FIG. 1).

[9] = n-Octanol-PBS partition coefficient (logD7.4); assay type: physicochemical; conditions: 18F-labeled ligand; n-octanol/PBS pH=7.4; mean ± SD (n = 5)
Description: Approx. 0.5 MBq of the ^18F-labeled SiFA-PSMA ligand were added into a test tube containing n-octanol (500 μL) and PBS (500 μL, pH=7.4). After vigorously shaking the two-phase mixture for 3 min at rt, the test tube was centrifuged at 9.000 rpm for 5 min to achieve quantitative phase separation. Finally, 150 μL of each layer were pipetted off and measured for activity using a gamma counter. After repeating the experiment for at least five times, the n-octanol-PBS partition coefficient log D7.4 was calculated according to following formula.

Row | Compound | logP(o/w) [2] | Lit. HSA binding [3] [%] | Log K HSA [3] | also measured
1 | SiFA-Asn(AcNH-β-Glc)-Tyr^3-octreotate | – | – | – | log P(ow) [1]: 1.23
2 | O=C(O)CC[C@H](NC(=O)N[C@@H](CCCCNC(=O)c1ccc([18F])nc1)C(=O)O)C(=O)O [[^natF/^18F]DCFPyI, DCFPyI] | −3.4 | – | – | –
3 | O=C(O)CC[C@H](NC(=O)N[C@@H](CCCCNC(=O)[C@H](Cc1ccc2ccccc2c1)NC(=O)[C@H]1CC[C@H](CNC(=O)CN2CCN(CC(=O)O)CCN(CC(=O)O)CCN(CC(=O)O)CC2)CC1)C(=O)O)C(=O)O [[^68Ga]PSMA-617, PSMA-617, metal not drawn] | −4.30 ± 0.10 | – | – | –
4 | OCc1ccccc1 [Benzyl alcohol] | – | 13.15 | −0.8248 | –
5 | SiFA-Asn(AcNH-β-Glc)-PEG-Tyr^3-octreotate | – | – | – | log P(ow) [1]: 0.96
6 | PSMA I&T [[^natGa/^68Ga]PSMA I&T] | −4.3 ± 0.3 | – | – | IC50 [4]: 9.3 ± 3.3 nM; Internalization (1 h) [5]: 59.2 ± 1.7
7 | COc1ccc(Cl)cc1C(=O)NCCc1ccc(S(=O)(=O)NC(=O)NC2CCCCC2)cc1 [Glibenclamide] | – | 99.00 | 1.695 | –
8 | Oc1ccccc1 [Phenol] | – | 20.69 | −0.589 | –
9 | Nc1ccccc1 [Aniline] | – | 14.06 | −0.7912 | –
10 | PSMA-1007 [[^natF/^18F]PSMA-1007] | −1.6 | – | – | IC50 [4]: 4.2 ± 0.5 nM
11 | O=C([O-])CN(CCN(CC(=O)[O-])Cc1cc(CCC(=O)NCCCCCC(=O)NCCCC[C@H](NC(=O)N[C@@H](CCC(=O)O)C(=O)O)C(=O)O)ccc1[O-])Cc1cc(CCC(=O)O)ccc1[O-].[68Ga+3].[OH3+] [[^natGa/^68Ga]PSMA-11, PSMA-11] | −4.1 ± 0.1 | – | – | IC50 [4]: 6.1 ± 0.8 nM; Internalization (1 h) [5]: 91.1 ± 1.7
12 | CC(C)(C)[Si](F)(c1ccc(C(=O)NC[C@@H](NC(=O)[C@@H](Cc2ccccc2)NC(=O)[C@@H](CCC(=O)O)NC(=O)[C@H](N)CCC(=O)O)C(=O)N[C@H](CCCCNC(=O)CCC(=O)NCCC[C@@H](NC(=O)CC[C@H](NC(=O)N[C@@H](CCC(=O)O)C(=O)O)C(=O)O)C(=O)O)C(=O)O)cc1)C(C)(C)C [SiFA-PSMA ligand 03 i] (H-[dE][dE][dF][dDap](Benzoyl(4-SiFtBu2))[dK]([Suc-X1])-OH) | – | – | – | IC50 [6]: 20.6 ± 1.8 nM; Internalization [7]: 50.33 ± 2.97%; Binding to HSA [8]: 98.9%; logD7.4 [9]: −2.30 ± 0.03
